# How the values were obtained:
# [1] = test system: 4T1 orthotopic breast tumor vasculature; experiment: Tumor vascular normalization in breast cancer mouse model (immunofluorescence, lectin perfusion, HIF-1α IHC, H&E); type: in vivo, BALB/c mice
# Procedure: The tumor tissues were then excised. […] All animals were raised in an SPF environment. […] We followed all the rules and regulations.
# Paraffin-embedded mouse tumor tissue sections were deparaffinized, rehydrated, and fixed with 4% paraformaldehyde at room temperature for 20 min. After washing with PBS, the sections were permeabilized with 1% Triton X-100 (Solarbio, China) for 15 min at room temperature, followed by blocking with 5% bovine serum albumin (BSA) in PBS containing 0.1% Triton X-100 for 1 h at room temperature to reduce nonspecific binding. The sections were first incubated with primary antibodies against PECAM-1 (CD31) and α-smooth muscle actin (α-SMA), including Alexa Fluor 488-conjugated anti-CD31 antibody (clone SC-376764-AF488, Santa Cruz Biotechnology, […]) and rabbit anti-α-SMA antibody (catalog no. AF0048, Beyotime Biotechnology, China). After washing, the sections were further incubated overnight at 4 °C with primary antibodies against dsDNA and HSP60. The next day, the sections were incubated with Alexa Fluor 647-conjugated goat anti-rabbit IgG (H + L) secondary antibody (catalog no. A0468, Beyotime Biotechnology, China) for 1 h at room temperature in the dark. Nuclear staining was performed using DAPI (catalog no. C0060, Solarbio, China). Finally, all slides were mounted with antifade mounting medium and observed using a […] 5 confocal microscope (Leica Microsystems, Germany).
# Immunohistochemical staining was performed on formalin-fixed, paraffin-embedded tissue sections. After deparaffinization and rehydration, antigen retrieval was conducted by heating the sections in citrate buffer (pH 6.0) at 95 °C for 12 min. Endogenous peroxidase activity was blocked by incubation with 3% hydrogen peroxide for 10 min at room temperature, followed by blocking of non-specific binding sites with 10% goat serum for 30 min at room temperature. The sections were then incubated overnight at 4 °C with a primary antibody against HIF-1α (rabbit anti-human, catalog no. 48085 T, Cell Signaling Technology, USA) diluted at 1:200. After washing, the sections were incubated with HRP-conjugated goat anti-rabbit IgG secondary antibody (catalog no. A0208, Beyotime Biotechnology, China) at a dilution of 1:500 for 30 min at room temperature. Color development was achieved using a DAB substrate kit, and the sections were counterstained with hematoxylin. After dehydration, clearing, and mounting with neutral resin, the stained sections were observed and imaged under an inverted microscope.
# To quantitatively assess vascular maturation, we performed dual immunofluorescence staining for the endothelial cell marker CD31 and pericyte marker α-SMA in tumor tissues. […] In addition, vascular perfusion indicates their transmission function is crucial for the delivery of chemotherapeutic and […] agents. To evaluate the effect of candesartan on tumor vascular perfusion function, DyLight™649-labeled tomato lectin (40 mg/kg), which specifically labels perfused blood vessels, was injected into the mice via tail vein injection 1.5 h before sacrifice. Then, perform frozen sectioning of the tumor tissue, microvessels were labeled with CD31 by immunofluorescence, and the co-expression percentage of tomato lectin and CD31^+ was observed and calculated. As shown in Fig. 4C-D, only a small fraction of CD31^+ blood vessels in the control group were coated with tomato lectin, with a low percentage of CD31^+Lectin^+.
# APLNR = target: T1, APLNR (Homo sapiens, UniProt P35414); experiment: Surface plasmon resonance (Biacore T200); details: APLNR on CM5 chip, 0.390625-12.5 µM, 1:1 kinetic binding model; read-out: equilibrium dissociation constant (KD)
# T1 sequence (P35414 1-380): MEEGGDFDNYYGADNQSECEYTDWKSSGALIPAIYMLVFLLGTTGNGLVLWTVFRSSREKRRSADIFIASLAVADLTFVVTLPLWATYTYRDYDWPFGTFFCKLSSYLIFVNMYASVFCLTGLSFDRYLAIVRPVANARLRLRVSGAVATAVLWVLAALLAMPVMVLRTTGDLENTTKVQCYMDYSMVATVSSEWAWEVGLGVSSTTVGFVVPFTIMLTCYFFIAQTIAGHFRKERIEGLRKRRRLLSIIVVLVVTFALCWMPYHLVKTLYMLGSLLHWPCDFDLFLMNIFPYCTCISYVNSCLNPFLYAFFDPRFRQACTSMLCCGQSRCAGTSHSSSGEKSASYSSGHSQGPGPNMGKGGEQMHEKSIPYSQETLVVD
# Procedure: SPR, which is a reliable method for analyzing real-time biomolecular interactions without labeling, was utilized to identify the binding affinity between APLNR and Candesartan. Candesartan is diluted with sterile phosphate-buffered saline (PBS). The APLNR protein is immobilized on a CM5 sensor chip via coupling, and then different concentrations of Candesartan (12.5 µM, 6.25 µM, 3.125 µM, 1.5625 µM, 0.78125 µM, 0.390625 µM) are injected. The Biacore T200 system can continuously and real-time monitor the changes in resonance units (RU), thereby obtaining the binding situation of candesartan with APLNR. The entire sensorgram is fitted using a 1:1 kinetic binding model, and the equilibrium dissociation constant (KD) is calculated.
# To further analyze the binding capacity of candesartan to APLNR, we conducted surface plasmon resonance (SPR) analysis to determine the binding affinity between candesartan and APLNR. […] This gradual increase in RU values indicates specific binding of candesartan to APLNR.
# HUVEC = experiment: Annexin V-FITC/PI apoptosis assay (flow cytometry); type: cell-based, human; details: 3.75-15 µM
# Source text: The Annexin V-FITC/PI Apoptosis Detection Kit (Vazyme) was used to detect cell apoptosis according to the manufacturer’s instructions. Cells were stained with the kit and then analyzed using flow cytometry (Becton Dickinson [BD]).
# [2] = test system: FAK-MMP9 signaling in HUVEC; experiment: Western blot of FAK and MMP-9; type: cell-based, human; details: candesartan 15, 7.5, 3.75 µM; sunitinib 2 µM
# Procedure: Total protein was extracted using RIPA lysis buffer (Solarbio, China) supplemented with phenylmethylsulfonyl fluoride (PMSF; Thermo Fisher Scientific, USA), protease inhibitor cocktail (Roche, Switzerland), and phosphatase inhibitor cocktail (Roche, Switzerland). Protein concentration was determined using a BCA protein assay kit (Thermo Fisher Scientific, USA). Equal amounts of protein were separated by 10% SDS-polyacrylamide gel electrophoresis (SDS-PAGE) and transferred onto nitrocellulose (NC) membranes. […] All primary antibodies were purchased from Cell Signaling Technology (CST, USA), except for GAPDH, which was obtained from Proteintech (Wuhan, China). After washing, the membranes were incubated with HRP-conjugated goat anti-rabbit or anti-mouse IgG secondary antibodies (Biosharp, China) for 1 h at room temperature. Protein bands were visualized using an enhanced chemiluminescence (ECL) detection system and scanned using a chemiluminescence imaging system.
smiles,measurement,setting,value
"CCOc1nc2cccc(C(=O)O)c2n1Cc1ccc(-c2ccccc2-c2nnn[nH]2)cc1 [Compound A-2, Candesartan]",Percentage of CD31+Lectin+ (vascular perfusion),"[1]; 10 mg/kg and 30 mg/kg, tomato lectin",significantly increased
same,Coverage of α-SMA+ pericyte on CD31+ endothelial cell,"[1]; 10 mg/kg and 30 mg/kg, vs vehicle",significant increase
same,HIF-1α expression in tumor tissues,[1]; IHC,significant decline
same,Tumor necrosis (H&E),[1]; high-dose 30 mg/kg,tendency towards increased necrosis
same,Tumor necrosis (H&E),[1]; low-dose 10 mg/kg,reduced necrotic areas
same,Kd,APLNR,1.72 µM
same,HUVEC apoptosis,HUVEC,no apoptosis was observed
same,Expression of MMP9 and FAK,[2],significantly decreased the expression of MMP9 and FAK
